From patent publication US20210386829A1, “COMPOSITIONS AND METHODS FOR MODULATING CGRP SIGNALING TO REGULATE INNATE LYMPHOID CELL INFLAMMATORY RESPONSES” (The Broad Institute, Inc., priority 2018, published 2021)

Test system: inflammatory ILC2s (ST2-KLRG1+ ILCs; iILC2s)
Assay: culture of sort-purified inflammatory ILC2s (iILC2s) with IL-33 or IL-25 with or without CGRP, qPCR
Type: cell-based, mouse
Conditions: IL-33 or IL-25 with vs without CGRP, 6 hours
Experimental: Isolation of lung cells for fluorescence-activated cell sorting. Mice were euthanized and perfused with 8 ml cold PBS via the right heart ventricle. Lung lobes were removed from the chest cavity and transferred into gentleMACS C tubes containing Buffer S and enzymes A and D from the lung dissociation kit (Cat #130-095-927; Miltenyi Biotec). After manual dissociation of the tissue by running program lung_01 of the automated tissue dissociator (gentleMACS; Miltenyi Biotec), and digestion at 37° C. for 25 min on a rotator, the tissue pieces were further dissociated by running program lung_02 of the automated tissue dissociator. Subsequently, the single-cell suspension was passed through a 70 um cell strainer and washed with DPBS (Cat #14190-144; Thermo Fisher Scientific) containing 0.5% bovine serum albumin (Cat #BP1600-1; Fisher Scientific) and 2 mM EDTA. After incubation of the cells with CD90.2 MicroBeads (Cat #130-049-101; Miltenyi Biotec) on ice for 17 min, cells were washed and transferred onto LS columns (Cat #130-042-401; Miltenyi Biotec) to enrich for CD90.2-positive cells by positive selection. […] Cells were purified by fluorescence-activated cell sorting using a BD FACS Aria IIIu flow cytometer with 3 lasers (405 nm, 488 nm, 640 nm) or 4 lasers (405 nm, 488 nm, 561 nm and 640 nm) (BD Biosciences). […]

## CGRP: neuropeptide calcitonin gene-related peptide (encoded by Calca), ligand of the Ramp1/Calcrl receptor; given at 100 nM in vitro, 6.65 ug nasally
  Il5 and Il13 expression in iILC2s: no differences
